Reference: publication PMC10700673, “A Smart Intracellular Self‐Assembling Bioorthogonal Raman Active Nanoprobe for Targeted Tumor Imaging” (Advanced Science, 2023)

What was measured:
[1] = test system: DU145 tumors; experiment: ex vivo Raman imaging of excised tumor sections with MCR analysis; format: in vivo, NU/J nude mice
Protocol: Ex vivo Raman imaging was conducted on the tumor excised from the tumor‐bearing mice at 2 h post‐administration of nanoSABER (Figure 6b–d). To distinguish the probe signal from endogenous autofluorescence and Raman‐active molecules in the tissue matrix, multivariate curve resolution (MCR) analysis was performed on the spectral dataset recorded from the Raman‐mapped tumor sections. MCR is designed to tackle such problems by expressing the original data through a bilinear model of pure component meaningful contributions.^[ [43] ^] Tissue sections were divided into five groups: DU145 control, DU145‐nanoSABER, DU145‐Scr, LNCaP control, and LNCaP‐nanoSABER, with the control group representing mice injected with 100 µL of PBS vehicle. Collected Raman spectra were divided into the above‐mentioned classes. The tumor dataset was also supplemented with spectra from the quartz coverslip and a separate class was created to preclude the impact of background spectral features in the ensuing analysis. […] Since we are particularly interested in the wavenumber features in the cell‐silent region (i.e., the nanoSABER‐specific bands in the otherwise biologically silent spectral region), MCR2 serves as the principal differentiator.
To create a readily interpretable two‐dimensional (2D) visualization plot, we plotted MCR2 scores against that of MCR3, which contains primarily tissue‐characteristic and background features (Figure 6c). […] The highest MCR2 and MCR3 scores for the quartz‐only spectra were used as the lower and upper thresholds, respectively, to depict significant contributions from the individual components. […] This is indicative of a 100% specificity of the nanoSABER probe, without secondary non‐specific spectra from any of the other tumor treatment classes in the ROI. Moreover, 15% of all spectra obtained from mice with DU145 tumors treated with the nanoSABER probe were situated within the ROI, which confirms the high penetration efficiency of the nanoprobes. […]

[2] = test system: LNCaP cells; experiment: confocal Raman imaging of cells; format: cell-based; conditions: 100 µM, 3 h, then fresh media 30 min, fixed cells, legumain low-expressing
Protocol: (§1) Raman measurements were performed on cells cultured on quartz slides. Cells were incubated with 100 µM nanoSABER probe solution for 3 h, then fresh media was added and incubation was continued for an extra 30 min. Subsequently, the cells were washed three times with phosphate‐buffered saline (PBS), fixed with 4% paraformaldehyde (PFA) for 20 min, and washed with PBS again. Finally, cells were imaged using a confocal Raman microscope. Cell boundaries were constructed using the Raman peak at 1440 cm^−1 characteristic of intrinsic cellular signals.^[ [29] ^] […] These spectral features indicate legumain‐mediated intracellular self‐assembly of nanoSABER into alkyne‐dimer nanoparticles in DU145 cells. The Raman mapping results were consistent with our in vitro solution‐based measurements (Figure 2f) where the nitrile peak diminished after the formation of alkyne‐dimer.
(§2) Raman spectra of all synthesized peptides were acquired using a 785 nm laser and a 50× objective. The acquisition time was 10 s with 5 repetitions. All spectra were processed using custom‐written scripts in MATLAB for a tenth‐order least‐squares polynomial baseline correction with a moving window of 50. All Raman cellular imaging maps were acquired using 785 nm laser excitation and a 60× water immersion objective. For each acquisition time, the number of accumulations were 6 s and 8 acquisitions, respectively. For sample preparation, 1 × 10^5 cells were cultured in six‐well plates containing 10×10 mm quartz slides for 24 h. Cells were incubated with 100 µM of nanoSABER or Scr nanoprobe for 3 h followed by replacement with fresh media and additional incubation for 30 min. Cells were washed with PBS three times and then fixed with 4 % paraformaldehyde (PFA) for 20 min, resuspended back in PBS, and then imaged using a confocal Raman microscope. […] For each group, three independent experiments were performed, and from each pellet, we recorded Raman spectra from eight different positions. […]

[3] = test system: DU145 cells; experiment: confocal Raman imaging of cells; format: cell-based; conditions: 100 µM, 3 h, then fresh media 30 min; fixed cells; DU145, legumain overexpressing
Protocol: as §1, §2

[4] = test system: RWPE1 cells; experiment: confocal Raman imaging of cells; format: cell-based; conditions: 100 µM, 3 h, then fresh media 30 min; fixed cells; RWPE1, normal prostate epithelium
Protocol: as §1, §2

Ac‐Arg‐Arg‐Arg‐Arg‐Arg‐Arg‐Ala‐Ala‐Asn‐Cys(StBu)‐Pra‐Lys‐CBT [nanoSABER]
average ratio of alkyne to nitrile Raman peak intensity of spectra within the ROI ([1]; DU145 tumors excised 2 h after IV 0.0125 mmol kg-1): 1.5
share of all spectra situated within the ROI ([1]; DU145 tumors excised 2 h after IV 0.0125 mmol kg-1, 12 µm cryosections): 15%
specificity (spectra in the ROI of MCR2 versus MCR3 score plot) ([1]; tumors excised 2 h after IV 0.0125 mmol kg-1, 12 µm cryosections): 100%
Raman map, alkyne and nitrile signals [2]: signals for both alkyne and nitrile groups from the nanoprobe were observed
Raman map, alkyne 2120 cm-1 and nitrile 2230 cm-1 signals [3]: undetectable signal levels at 2230 cm^−1
Raman map, alkyne and nitrile signals [4]: signals for both alkyne and nitrile groups from the nanoprobe were observed
